Tests used:
WSUDLCL2 = experiment: Antiproliferative activity against human WSUDLCL2 cells
[1] = target: Cyclin-dependent kinase 9 (Homo sapiens) (UniProt P50750); conditions: dose 10.0 nM
Description: Inhibition of CDK9 (unknown origin) at 10 nM relative to control

[2] = target: Cyclin-dependent kinase 9 (Homo sapiens) (UniProt P50750); conditions: dose 100.0 nM
Description: Inhibition of CDK9 (unknown origin) at 100 nM relative to control

Sequence of Cyclin-dependent kinase 9 (Homo sapiens) (P50750 whole entry): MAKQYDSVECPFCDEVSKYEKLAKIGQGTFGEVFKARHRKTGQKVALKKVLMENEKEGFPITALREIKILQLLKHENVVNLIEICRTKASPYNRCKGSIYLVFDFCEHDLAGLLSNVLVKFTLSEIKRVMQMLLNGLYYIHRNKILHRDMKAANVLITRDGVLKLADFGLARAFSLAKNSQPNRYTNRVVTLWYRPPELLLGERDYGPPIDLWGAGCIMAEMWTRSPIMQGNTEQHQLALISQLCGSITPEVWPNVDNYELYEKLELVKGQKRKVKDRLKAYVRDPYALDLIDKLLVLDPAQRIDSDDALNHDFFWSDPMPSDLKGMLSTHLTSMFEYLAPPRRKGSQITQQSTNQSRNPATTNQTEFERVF

Structure (SMILES) | IC50 (WSUDLCL2) [nM] | inhibition [1] [%] | inhibition [2] [%]
CC(C)(C)c1cnc(CSc2cnc(NC(=O)C3CCN(CCCn4c(=O)n(Cc5ccncc5)c(=O)c5cccnc54)CC3)s2)o1 | 13 | 30 | 88
CCn1c(=O)c2cccnc2n(CCCN2CCC(C(=O)Nc3ncc(SCc4ncc(C(C)(C)C)o4)s3)CC2)c1=O | 39 | 27 | 83
CCn1c(=O)c2ccc(Cl)cc2n(CCCN2CCC(C(=O)Nc3ncc(SCc4ncc(C(C)(C)C)o4)s3)CC2)c1=O | 332 | -2 | 82
CC(C)(C)c1cnc(CSc2cnc(NC(=O)C3CCN(CC(=O)NCCOCCOCCOCCNc4cccc5c4C(=O)N(C4CCC(=O)NC4=O)C5=O)CC3)s2)o1 (stereo not given) | 310 | – | 13
CC(C)(C)c1cnc(CSc2cnc(NC(=O)C3CCNCC3)s2)o1 [BMS-387032] | 201 | 22 | 83
CC(C)(C)c1cnc(CSc2cnc(NC(=O)C3CCN(CCCn4c(=O)n(Cc5ccncc5)c(=O)c5ccc(Cl)cc54)CC3)s2)o1 | 82 | 13 | 85
CC(C)(C)c1cnc(CSc2cnc(NC(=O)C3CCN(CCCn4c(=O)n(Cc5ccccc5)c(=O)c5cccnc54)CC3)s2)o1 | 326 | 19 | 84

From ChEMBL document CHEMBL6114975, “Discovery of 2,4-quinazolinedione derivatives as LC3B recruiters in the facilitation of protein complex degradations” (Eur J Med Chem, 2025)
